In patent US20260001889A1, “COMPOSITIONS USEFUL FOR MODULATING SPLICING” (Skyhawk Therapeutics, Inc., priority 2022, published 2026):

How the values were obtained:
ATXN3-HiBiT protein = assay: ATXN3 Total Protein Assay (Kelly-ATXN3-HiBiT luminescence); assay type: cell-based; details: Kelly-ATXN3-HiBiT cells, 48 h after addition of compound
Summary of the method: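 Endogenous ATXN3-HiBiT protein in knock-in Kelly neuroblastoma cells measured by lytic HiBiT luminescence 48 h post-compound (added 24 h after seeding 2000 cells/well). Values are fold changes relative to DMSO, with viability from a parallel CellTiter-Glo plate.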

total ATXN3 protein = assay: ATXN3 Total Protein Assay (Mesoscale Discovery, SK-N-MC cells); assay type: cell-based, Human; details: incubation for 48 hours, MSD assay
Summary of the method: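 Readout: MSD electrochemiluminescence immunoassay of lysates, calibrated with recombinant ATXN3 and using mouse/rabbit anti-ATXN3 antibody pair. Cells (SK-N-MC, human) were exposed for 48 h to compound doses between 30 μM and 0.6 nM.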

[1] = test system: ATXN3 transcripts containing exon 4; assay: ATXN3 Quantitative Splicing Assay (qPCR, E4E5 primers/probe); assay type: cell-based; details: Homo sapiens, SK-N-MC cells, compounds for 24 h
Summary of the method: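 Exon 4-containing ATXN3 transcripts are quantified by TaqMan qPCR (E4E5 primers/probe) on cell-lysate cDNA, with total ATXN3 from the E8E9 set. Source cells: human neuroblastoma SK-N-MC, exposed for 24 h to compound at 30 μM down to 0.6 nM.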

EC50 (ATXN3-HiBiT protein) [nM]	IC50 (total ATXN3 protein) [nM]	IC50 [1] [nM]	SMILES
101 to 500	101 to 500	101 to 500	C[C@H](F)[C@H](N)Cc1oc2c(NCc3ccccc3)cc(Cl)nc2c1Br [Compound 92, 2-[(2R,3S)-2-amino-3-fluorobutyl]-7-benzylamino-3-bromo-5-chloro-1-oxa-4-azaindene]
501 to 5000	501 to 5000	501 to 5000	NC1(Cc2oc3c(NCc4cccs4)cc(Cl)nc3c2Br)CC1 [Compound 227, 2-[(1-aminocyclopropyl)methyl]-3-bromo-5-chloro-N-(thiophen-2-ylmethyl)furo[3,2-b]pyridin-7-amine]
101 to 500	101 to 500	101 to 500	C[C@H](F)[C@H](N)Cc1oc2c(NCc3ccc(F)s3)cc(Cl)nc2c1Br [Compound 94, 2-[(2R,3S)-2-amino-3-fluorobutyl]-3-bromo-5-chloro-7-{[(5-fluoro-2-thienyl)methyl]amino}-1-oxa-4-azaindene]
0.01 to 100	101 to 500	101 to 500	N[C@@H](COC(F)F)Cc1oc2c(NCc3cccs3)cc(Cl)nc2c1Cl [Compound 188, 2-[(R)-2-amino-3-difluoromethoxypropyl]-3,5-dichloro-7-thenylamino-1-oxa-4-azaindene]
0.01 to 100	0.01 to 100	0.01 to 100	C[C@H](F)[C@H](N)Cc1oc2c(NCc3cccs3)cc(Cl)nc2c1Cl [Compound 148, 2-[(2R,3S)-2-amino-3-fluorobutyl]-3,5-dichloro-7-thenylamino-1-oxa-4-azaindene]
101 to 500	101 to 500	101 to 500	C#Cc1c(C[C@@H](N)COC)oc2c(NCc3nccs3)cc(Cl)nc12 [Compound 65, 2-[(R)-2-amino-3-methoxypropyl]-5-chloro-3-ethynyl-7-{[(1,3-thiazol-2-yl)methyl]amino}-1-oxa-4-azaindene]
0.01 to 100	0.01 to 100	0.01 to 100	C[C@H](F)[C@H](N)Cc1oc2c(NCc3ccco3)cc(Cl)nc2c1Br [Compound 118, 2-[(2R,3S)-2-amino-3-fluorobutyl]-3-bromo-5-chloro-7-(furfurylamino)-1-oxa-4-azaindene]
101 to 500	101 to 500	101 to 500	Cc1c(C[C@@H](N)[C@H](C)F)oc2c(NCc3nccs3)cc(Cl)nc12 [Compound 106, 2-[(2R,3S)-2-amino-3-fluorobutyl]-5-chloro-3-methyl-7-{[(1,3-thiazol-2-yl)methyl]amino}-1-oxa-4-azaindene]
101 to 500	101 to 500	101 to 500	Cc1c(C[C@@H](N)[C@H](C)F)oc2c(NCc3sccc3F)cc(Cl)nc12 [Compound 142, 2-[(2R,3S)-2-amino-3-fluorobutyl]-5-chloro-7-{[(3-fluoro-2-thienyl)methyl]amino}-3-methyl-1-oxa-4-azaindene]
101 to 500	101 to 500	101 to 500	N#Cc1cc(NCc2cccs2)c2oc(C[C@@H](N)CO)c(Br)c2n1 [Compound 60, 2-[(R)-2-amino-3-hydroxypropyl]-3-bromo-7-thenylamino-1-oxa-4-aza-5-indenecarbonitrile]
0.01 to 100	101 to 500	0.01 to 100	C#Cc1cc(NCc2cccs2)c2oc(C[C@@H](N)COC)c(Br)c2n1 [Compound 151, 2-[(R)-2-amino-3-methoxypropyl]-3-bromo-5-ethynyl-7-thenylamino-1-oxa-4-azaindene]
0.01 to 100	0.01 to 100	0.01 to 100	C[C@H](O)[C@H](N)Cc1oc2c(NCc3cccs3)cc(Cl)nc2c1Br [Compound 125, (2S,3R)-3-amino-4-(3-bromo-5-chloro-7-thenylamino-1-oxa-4-aza-2-indenyl)-2-butanol]
501 to 5000	501 to 5000	501 to 5000	N[C@@H](CO)C(F)(F)c1oc2c(NCc3cccs3)cc(Cl)nc2c1Cl [Compound 190, (S)-2-amino-3-(3,5-dichloro-7-thenylamino-1-oxa-4-aza-2-indenyl)-3,3-difluoro-1-propanol]
0.01 to 100	0.01 to 100	0.01 to 100	C[C@H](F)[C@H](N)Cc1oc2c(NCc3ccco3)cc(Cl)nc2c1Cl [Compound 150, 2-[(2R,3S)-2-amino-3-fluorobutyl]-3,5-dichloro-7-(furfurylamino)-1-oxa-4-azaindene]
0.01 to 100	0.01 to 100	0.01 to 100	C#Cc1c(C[C@@H](N)COC)oc2c(NCc3ccco3)cc(Cl)nc12 [Compound 66, 2-[(R)-2-amino-3-methoxypropyl]-5-chloro-3-ethynyl-7-(furfurylamino)-1-oxa-4-azaindene]
501 to 5000	101 to 500	101 to 500	C[C@H](F)[C@H](N)Cc1oc2c(NCc3ccccc3F)cc(Cl)nc2c1Br [Compound 152, 2-[(2R,3S)-2-amino-3-fluorobutyl]-3-bromo-5-chloro-7-{[(o-fluorophenyl)methyl]amino}-1-oxa-4-azaindene]
0.01 to 100	0.01 to 100	0.01 to 100	C#Cc1c(C[C@@H](N)COC)oc2c(NCc3cccs3)cc(Cl)nc12 [Compound 61, 2-[(R)-2-amino-3-methoxypropyl]-5-chloro-3-ethynyl-7-thenylamino-1-oxa-4-azaindene]
501 to 5000	101 to 500	501 to 5000	N[C@H](Cc1oc2c(NCc3ccco3)cc(Cl)nc2c1Br)C(F)F [Compound 243, 2-[(R)-2-amino-3,3-difluoropropyl]-3-bromo-5-chloro-7-(furfurylamino)-1-oxa-4-azaindene]

More lines, now with the values behind:

SMILES	EC50 (ATXN3-HiBiT protein) [nM]	IC50 (total ATXN3 protein) [nM]	IC50 [1] [nM]
C[C@H](N)Cc1oc2c(NCc3cccs3)cc(Cl)nc2c1-c1nccn1C [Compound 314, 2-[(S)-2-aminopropyl]-5-chloro-3-(1-methyl-2-imidazolyl)-7-thenylamino-1-oxa-4-azaindene]	10000 to 40000	10000 to 40000	10000 to 40000
C[C@H](N)Cc1oc2c(NCc3cccs3)cc(Cl)nc2c1-c1nccs1 [Compound 257, 2-[(S)-2-aminopropyl]-5-chloro-7-thenylamino-3-(1,3-thiazol-2-yl)-1-oxa-4-azaindene]	10000 to 40000	10000 to 40000	10000 to 40000
Cc1c(C[C@@H](N)CC2CC2)oc2c(NCc3cccs3)cc(Cl)nc12 [Compound 14, 2-[(S)-2-amino-3-cyclopropylpropyl]-5-chloro-3-methyl-7-thenylamino-1-oxa-4-azaindene]	0.01 to 100	101 to 500	101 to 500
N[C@@H](CO)Cc1oc2c(NCc3ccco3)cc(Cl)nc2c1Cl [Compound 23, (R)-2-amino-3-[3,5-dichloro-7-(furfurylamino)-1-oxa-4-aza-2-indenyl]-1-propanol]	0.01 to 100	0.01 to 100	0.01 to 100
C#Cc1cc(NCc2ccco2)c2oc(C[C@H](C)N)c(Br)c2n1 [Compound 112, 2-[(S)-2-aminopropyl]-3-bromo-5-ethynyl-7-(furfurylamino)-1-oxa-4-azaindene]	0.01 to 100	101 to 500	101 to 500
C[C@H](N)Cc1oc2c(NCc3nccs3)cc(Cl)nc2c1Br [Compound 45, 2-[(S)-2-aminopropyl]-3-bromo-5-chloro-7-{[(1,3-thiazol-2-yl)methyl]amino}-1-oxa-4-azaindene]	0.01 to 100	101 to 500	101 to 500
C[C@H](N)Cc1oc2c(NCc3cccs3)cc(Cl)nc2c1-c1ccn[nH]1 [Compound 319, 2-[(S)-2-aminopropyl]-5-chloro-3-(5-pyrazolyl)-7-thenylamino-1-oxa-4-azaindene]	501 to 5000	501 to 5000	501 to 5000
C#Cc1cc(NCc2cccs2)c2oc(C[C@H](C)N)c(C)c2n1 [Compound 40, 2-[(S)-2-aminopropyl]-5-ethynyl-3-methyl-7-thenylamino-1-oxa-4-azaindene]	501 to 5000	501 to 5000	501 to 5000
Cc1c(C[C@@H](N)[C@H](C)F)oc2c(NCc3cccs3)cc(Cl)nc12 [Compound 41, 2-[(2R,3S)-2-amino-3-fluorobutyl]-5-chloro-3-methyl-7-thenylamino-1-oxa-4-azaindene]	0.01 to 100	0.01 to 100	0.01 to 100
C[C@H](N)Cc1oc2c(NCc3cccs3)cc(Cl)nc2c1-c1ccnn1C [Compound 316, 2-[(S)-2-aminopropyl]-5-chloro-3-(1-methyl-5-pyrazolyl)-7-thenylamino-1-oxa-4-azaindene]	10000 to 40000	10000 to 40000	10000 to 40000
C[C@H](N)Cc1oc2c(NCc3cccs3)cc(Cl)nc2c1Cl [Compound 16, 2-[(S)-2-aminopropyl]-3,5-dichloro-7-thenylamino-1-oxa-4-azaindene]	0.01 to 100	0.01 to 100	0.01 to 100
C[C@H](N)Cc1oc2c(NCc3nccs3)cc(Cl)nc2c1Cl [Compound 57, 2-[(S)-2-aminopropyl]-3,5-dichloro-7-{[(1,3-thiazol-2-yl)methyl]amino}-1-oxa-4-azaindene]	101 to 500	101 to 500	101 to 500
C[C@H](N)Cc1oc2c(NCc3cccs3)cc(Cl)nc2c1C#N [Compound 18, 2-[(S)-2-aminopropyl]-5-chloro-7-thenylamino-1-oxa-4-aza-3-indenecarbonitrile]	5000 to 10000	5000 to 10000	10000 to 40000
C[C@H](N)Cc1oc2c(NCc3ccco3)cc(C#N)nc2c1Br [Compound 36, 2-[(S)-2-aminopropyl]-3-bromo-7-(furfurylamino)-1-oxa-4-aza-5-indenecarbonitrile]	501 to 5000	501 to 5000	501 to 5000
